# Laboratory results reported in US20230355613A1, “METHODS FOR TREATING PANCREATIC DUCTAL ADENOCARCINOMA” (HEALTH RESEARCH, INC., priority 2022, published 2023).
# Tests used:
# Panc1 cells [1] = experiment: Western blot of histone protein levels; format: cell-based, human; conditions: dose- and time-dependent
# MiaPaCa2 cells [2] = experiment: mRNA expression of RD histones (H2B, H3) by qPCR; format: cell-based, human
# Description: (C) Heatmap of top differentially expressed genes upon JTE-607 treatment. Replication-dependent histones are colored in blue. Expression is plotted as transformed expression value. (D) mRNA expression of H2B and H3 in MiaPaCa2 cells treated with JTE-607. *, P<0.05, **, P<0.01, ***, P<0.001, Ordinary one-way ANOVA with Dunnett's multiple comparisons test. (E) DSeq2 normalized counts of H3F3A and H2AZ1 histone variants (replication-independent) in Panc1 cells treated with JTE-607. […]. (F-H) Volcano plots of Spearman's correlation of CPSF3 and all histone genes (F), replication-dependent histone genes (G) and replication-independent histone genes (H). Each dot represents a histone gene. Blue and red dots denote positive and negative correlation, respectively. (Spearman=−0.15>R>0.15, P<0.05).
# As JTE-607 has been previously administered to patients with no cytotoxic effects, we wanted to determine the mechanism underlying the ability of JTE-607 to attenuate PDAC cell proliferation. […] The Spearman's correlation for CPSF3 and 98 histone genes from the CPTAC database (Spearman=−0.15>R>0.15, P<0.05) (FIG. 4F) were calculated. […] A signature by selecting 50 RD histones and assessed PDAC patient survival based on gene expression was generated.
# RNA isolation and quantitative PCR. […] Data were analyzed in Microsoft Excel and graphed using GraphPad Prism (v 9.3.0).
# HPNE cells [3] = experiment: Micrococcal Nuclease (MNase) assay of chromatin condensation; format: cell-based, human; conditions: compared with DMSO-treated cells
# Protocol: (§1) Therefore, a Micrococcal Nuclease (MNase) assay was performed to assess relative chromatin condensation. In this assay, protein-free DNA is digested by MNase, producing DNA fragmentation patterns that are indicators of whether chromatin is in a condensed or relaxed state. […] To assess chromatin destabilization in a living cell, the HeLa-TI cell line model that has a silenced GFP reporter within a heterochromatic region of the genome was utilized. […] Therefore, GFP expression in HeLa-TI cells was monitored upon JTE-607 treatment by both fluorescence microscopy and flow cytometry.
# (§2) Micrococcal digestion. Micrococcal Nuclease (MNase) was performed as previously described. Briefly, cells were trypsinized, washed with 1×RSB buffer (10 mM Tris HCL, pH 7.6; 15 mM NaCl; 1.5 mM MgCl2) and pelleted at 1000 rpm for 4 minutes at room temperature. Cell pellets were resuspended in 1×RSB buffer with 1% TritonX-100, homogenized with a loose pestle (5 strokes) and centrifuged for 5 minutes at 2000 rpm at 4° C. Pellets were washed two times with 1 ml of buffer A (10 mM Tris HCL, pH 7.6; 15 mM NaCl; 60 mM KCl; 0.34 M Sucrose; 0.1% B-mercaptoethanol; 0.15 mM Spermine; 0.5 mM Spermidine; 0.25 mM PMSF) and nuclei were pelleted at 160 g for 10 minutes at 4° C. Nuclei were resuspended in 1.5 mL of buffer A supplemented with 1 mM of CaCl2). Nuclear suspensions (500 μL) were digested with 200 U/mL Micrococcal nuclease at 37° C. at different time points.
# Panc1 cells [4] = experiment: as above; format: cell-based, human
# Protocol: as §1, §2
# HeLa-TI cells = experiment: Silenced GFP reporter derepression (chromatin destabilization) by microscopy and flow cytometry; format: cell-based; conditions: dose- and time-dependent
# Protocol: as §1
# HPNE cells [5] = experiment: Cell cycle analysis (propidium iodide FACS); format: cell-based, human
# Protocol: (§3) Finally, we sought to determine how JTE-607-mediated depletion of RD histones led to defects in cell viability. As RD histones are required for cell cycle progression, we assessed the effects of JTE-607 on cell cycle distribution. […] In contrast, JTE-607 arrested Panc1 and MiaPaCa2 PDAC cells in S-phase of the cell cycle within 24 hours (FIGS. 7A and 7B). To corroborate the impact of CPSF3 knockdown on cell cycle, CPSF3 was transiently knocked-down with siRNA in Panc1 and HPNE cells (FIGS. 13D, 7C). CPSF3 knockdown induced cell cycle arrest in Panc1 cells with minimal effect on HPNE cells (FIGS. 7D and 7E). However, unlike CPSF3 inhibition-induced cell cycle arrest at S-phase, CPSF3 knockdown cells arrested at G2. […] To more specifically investigate the timing and extent of S-phase arrest upon JTE-607 treatment, BrdU incorporation was examined in a time-dependent manner (FIG. 7F). […] This is in support of previous reports where histone defects slow the progression of cells during S-phase. Therefore, JTE-607 destabilizes chromatin and attenuates PDAC cell proliferation through S-phase cell cycle arrest.
# (§4) Cell cycle analysis. Cells were trypsinized and resuspended in 1×PBS, then fixed with ice-cold 70% ethanol for 1 hour at −20° C. Cells were then washed with cold 1×PBS and incubated with RNaseA (200 μg/ml) at 37° C. for 1 hour. Propidium iodide (40 μg/ml) was then added, incubated for 1 hour in the dark and analyzed by FACS at 488 nm. Data were analyzed by FCS express software (v7.06.0015).
# MiaPaCa2 cells [6] = experiment: Cell cycle analysis (propidium iodide FACS); format: cell-based, human; conditions: within 24 hours
# Protocol: as §3, §4
# Panc1 cells [7] = experiment: Cell cycle analysis (propidium iodide FACS); format: cell-based, human; conditions: within 24 hours
# Protocol: as §3, §4
# [8] = tested on: C-reactive protein, IL-10 and IL-1ra; conditions: in humans; cited from earlier work
# [9] = tested on: human acute myeloid leukemia (AML) and Ewing's sarcoma cells; conditions: in vitro; cited from earlier work
# xenograft models = xenograft models in vivo; cited from earlier work
compound,measurement,setting,value
CCOC(=O)[C@H](Cc1ccccc1)NC(=O)c1cc(Cl)c(OCCN2CCN(C)CC2)c(Cl)c1O [JTE-607],H3 and H2B protein levels,Panc1 cells [1],reduced both H3 and H2B protein levels
same,"RD histone mRNA expression (H2B, H3)",MiaPaCa2 cells [2],decrease
same,chromatin digestion by MNase,HPNE cells [3],no chromatin digestion
same,mononucleosomes released by MNase digestion,Panc1 cells [4]; after 30 minutes of incubation,~4×10^3 normalized FU
same,chromatin digestion by MNase,Panc1 cells [4]; compared with DMSO-treated cells,rapid and complete chromatin digestion
same,GFP expression,HeLa-TI cells,induced GFP expression to levels comparable with CBL0137
same,cell cycle distribution,HPNE cells [5],no impact on cell cycle distribution
same,cell cycle arrest phase,MiaPaCa2 cells [6],S-phase
same,cell cycle arrest phase,Panc1 cells [7],S-phase
same,"endotoxin-induced production of C-reactive protein, IL-10 and IL-1ra",[8],inhibited
same,apoptosis,[9],induces apoptosis
same,survival of tumor-bearing mice,xenograft models,prolongs survival
